The source of these data is PubChem BioAssay AID328 (DTP/NCI, 2004).

The test system of this assay is BDF1 mice, P388 leukemia ip, median survival T/C. In words: NCI In Vivo Anticancer Drug Screen. Data for tumor model P388 Leukemia (intraperitoneal) in B6D2F1 (BDF1) mice. Conditions: endpoint: median survival time, higher = longer survival. The method, boiled down:
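Each value expresses how treatment altered survival: treated-mouse outcome over vehicle-mouse outcome, both groups bearing the transplanted tumour.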

[1] abbreviates: dose: 50.0 mg/kg/injection, schedule: Q01DX009 (ip), vehicle: saline with Tween-80.
[2] abbreviates: dose: 100.0 mg/kg/injection, schedule: Q01DX009 (ip), vehicle: saline with Tween-80.
Where [3] appears, read: dose: 200.0 mg/kg/injection, schedule: Q01DX009 (ip), vehicle: saline with Tween-80.
[4] abbreviates: dose: 400.0 mg/kg/injection, schedule: Q04DX003 (ip), vehicle: saline with Tween-80.
Where [5] appears, read: dose: 400.0 mg/kg/injection, schedule: Q04DX003 (ip), vehicle: saline.
Setting [6] is: dose: 10.0 mg/kg/injection, schedule: Q01DX010 (ip), vehicle: saline.
Where [7] appears, read: dose: 100.0 mg/kg/injection, schedule: Q04DX003 (ip), vehicle: Klucel (hydroxypropylcellulose) (HPC).
Setting [8] is: dose: 200.0 mg/kg/injection, schedule: Q04DX003 (ip), vehicle: Klucel (hydroxypropylcellulose) (HPC).
Where [9] appears, read: dose: 400.0 mg/kg/injection, schedule: Q04DX003 (ip), vehicle: Klucel (hydroxypropylcellulose) (HPC).

Each structure is given as a SMILES string. “And” between values parts separate entries of the source, which are not always exact repeats. Equal values may be shown once. Toxic doses and inconclusive results are not listed.

As to `CC(C)(C)C(=O)C(Oc1ccc(Cl)cc1)n1cncn1` (stereo unspecified), the T/C is, setting by setting: under setting [1], 100 % of control; under setting [2], 100 % of control; under setting [3], 100 % of control.
For `N=c1ccn2c(n1)OC1C(OP(=O)(O)O)C(CO)OC12` (stereo unspecified), the T/C (dose: 52.0 mg/kg/injection, schedule: Q04DX003 (ip), vehicle: saline) is 109 % of control; the T/C (dose: 118.0 mg/kg/injection, schedule: Q04DX003 (ip), vehicle: saline) was 159 % of control; the T/C (dose: 177.0 mg/kg/injection, schedule: Q04DX003 (ip), vehicle: saline) is 172 % of control and 185 % of control; the T/C (dose: 266.0 mg/kg/injection, schedule: Q04DX003 (ip), vehicle: saline with Tween-80) is 172 % of control; the T/C (dose: 266.0 mg/kg/injection, schedule: Q04DX003 (ip), vehicle: saline) was 205 % of control; the T/C under setting [4] was 181 % of control. In addition, the T/C runs as follows: under setting [5], 200 % of control; (dose: 600.0 mg/kg/injection, schedule: Q04DX003 (ip), vehicle: saline with Tween-80) 200 % of control; (dose: 600.0 mg/kg/injection, schedule: Q04DX003 (ip), vehicle: saline) 230 % of control.
On to `COc1ccc2c(c[n+](C)c3c4cc5c(cc4ccc23)OCO5)c1OC`, for which the T/C (dose: 5.0 mg/kg/injection, schedule: Q01DX010 (ip), vehicle: saline) is 90 % of control and the T/C under setting [6] is 100 % of control.
In the case of `COc1ccc(CC(C(=O)O)C(Cc2ccc(OC)c(OC)c2)C(=O)O)cc1OC` (stereo unspecified), the T/C reads like this: under setting [7], 109 % of control; under setting [8], 100 % of control; under setting [9], 109 % of control.
As to `COc1cccc(CCNC(=O)CC#N)c1OC`, the T/C reads like this: under setting [1], 105 % of control; under setting [2], 105 % of control; (dose: 100.0 mg/kg/injection, schedule: Q04DX003 (ip), vehicle: saline with Tween-80) 100 % of control; under setting [3], 95 % of control; (dose: 200.0 mg/kg/injection, schedule: Q04DX003 (ip), vehicle: saline with Tween-80) 100 % of control; under setting [4], 100 % of control.
With `C/C=C1/C[C@@H](C)[C@@](C)(O)C(=O)OCC2=CC[N+]3([O-])CC[C@@H](OC1=O)[C@@H]23` (stereo partly specified), the T/C is, setting by setting: under setting [6], 109 % of control; (dose: 20.0 mg/kg/injection, schedule: Q01DX010 (ip), vehicle: saline) 104 % of control; (dose: 40.0 mg/kg/injection, schedule: Q01DX010 (ip), vehicle: saline) 113 % of control; (dose: 80.0 mg/kg/injection, schedule: Q01DX010 (ip), vehicle: saline) 109 % of control.
On to `FC(F)(F)C1=N/C(=C2\N=C(C(F)(F)F)N=C2Cl)C(Cl)=N1`, for which the T/C runs as follows: (dose: 0.39 mg/kg/injection, schedule: Q04DX003 (ip), vehicle: saline with Tween-80) 100 % of control; (dose: 0.78 mg/kg/injection, schedule: Q04DX003 (ip), vehicle: saline with Tween-80) 114 % of control; (dose: 1.56 mg/kg/injection, schedule: Q01DX009 (ip), vehicle: saline with Tween-80) 104 % of control; (dose: 1.56 mg/kg/injection, schedule: Q04DX003 (ip), vehicle: saline with Tween-80) 100 % of control and 110 % of control; (dose: 3.12 mg/kg/injection, schedule: Q01DX009 (ip), vehicle: saline with Tween-80) 116 % of control; (dose: 3.12 mg/kg/injection, schedule: Q04DX003 (ip), vehicle: saline with Tween-80) 96 % of control and 100 % of control. In addition, the T/C (dose: 6.25 mg/kg/injection, schedule: Q01DX009 (ip), vehicle: saline with Tween-80) is 116 % of control; the T/C (dose: 6.25 mg/kg/injection, schedule: Q04DX003 (ip), vehicle: saline with Tween-80) was 91 % of control and 100 % of control; the T/C (dose: 12.5 mg/kg/injection, schedule: Q01DX009 (ip), vehicle: saline with Tween-80) was 111 % of control; the T/C (dose: 12.5 mg/kg/injection, schedule: Q04DX003 (ip), vehicle: saline with Tween-80) is 88 % of control; the T/C (dose: 25.0 mg/kg/injection, schedule: Q01DX009 (ip), vehicle: saline with Tween-80) is 94 % of control; the T/C (dose: 25.0 mg/kg/injection, schedule: Q04DX003 (ip), vehicle: saline with Tween-80) is 88 % of control.
For the molecule `CC(=O)[C@H]1CC[C@H]2[C@@H]3C[C@H](F)C4=CC(=O)CC[C@]4(C)[C@@]3(F)[C@@H](O)C[C@]12C`, the T/C (dose: 12.0 mg/kg/injection, schedule: Q01DX009 (ip), vehicle: Klucel (hydroxypropylcellulose) (HPC)) is 122 % of control; the T/C (dose: 12.5 mg/kg/injection, schedule: Q01DX009 (ip), vehicle: Klucel (hydroxypropylcellulose) (HPC)) is 115 % of control; the T/C (dose: 25.0 mg/kg/injection, schedule: Q01DX009 (ip), vehicle: Klucel (hydroxypropylcellulose) (HPC)) is 100 % of control and 103 % of control; the T/C (dose: 50.0 mg/kg/injection, schedule: Q01DX009 (ip), vehicle: Klucel (hydroxypropylcellulose) (HPC)) is 90 % of control and 100 % of control; the T/C under setting [7] was 95 % of control and 113 % of control; the T/C under setting [8] is 95 % of control and 113 % of control. In addition, the T/C under setting [9] is 95 % of control and 104 % of control and 109 % of control.
In the case of `CCN(CC)CCCNc1cccc2c(C)cc(OC)nc12`, the T/C reads like this: under setting [1], 97 % of control; under setting [2], 114 % of control.
`O=C1Nc2ccc(Br)cc2C1=Nc1ccc2c(c1)OCO2`: the T/C runs as follows: under setting [1], 113 % of control; under setting [2], 111 % of control; under setting [3], 108 % of control; (dose: 400.0 mg/kg/injection, schedule: Q01DX009 (ip), vehicle: saline with Tween-80) 111 % of control.
As for `O=C(O)C(O)C(O)C(O)C(O)CO.[Mn]` (stereo unspecified), the T/C runs as follows: (dose: 66.0 mg/kg/injection, schedule: Q01DX009 (ip), vehicle: saline) 116 % of control; (dose: 100.0 mg/kg/injection, schedule: Q01DX009 (ip), vehicle: saline) 116 % of control.
For `COC(=O)c1cc([N+](=O)[O-])ccc1Cl`, the T/C (dose: 100.0 mg/kg/injection, schedule: Q04DX003 (ip), vehicle: saline) was 98 % of control; the T/C (dose: 200.0 mg/kg/injection, schedule: Q04DX003 (ip), vehicle: saline) was 102 % of control; the T/C under setting [5] was 100 % of control.
Take `O=C(/C(=C\c1ccccc1)CBr)c1ccc(Br)cc1`: the T/C reads like this: (dose: 3.12 mg/kg/injection, schedule: Q01DX009 (ip), vehicle: saline) 115 % of control; (dose: 6.25 mg/kg/injection, schedule: Q01DX009 (ip), vehicle: saline) 115 % of control; (dose: 12.5 mg/kg/injection, schedule: Q01DX009 (ip), vehicle: saline) 110 % of control.
Regarding `Cc1ccc(N2C(=O)CSC2=S)cc1`, the T/C was 105 % of control under setting [1], 95 % of control under setting [2] and 95 % of control under setting [3].
Take `C(=N\c1ncn[nH]1)/c1ccco1`: the T/C by setting is: under setting [1], 111 % of control; under setting [2], 99 % of control; under setting [3], 102 % of control.
For the molecule `COc1cc([C@@H]2c3cc4c(c(O)c3C[C@H]3COC(=O)[C@@H]32)OCO4)cc(OC)c1O`, the T/C runs as follows: (dose: 0.12 mg/kg/injection, schedule: Q01DX010 (ip), vehicle: carboxymethylcellulose (CMC)) 105 % of control; (dose: 0.25 mg/kg/injection, schedule: Q01DX010 (ip), vehicle: carboxymethylcellulose (CMC)) 100 % of control; (dose: 0.5 mg/kg/injection, schedule: Q01DX001 (ip), vehicle: other) 121 % of control; (dose: 0.5 mg/kg/injection, schedule: Q01DX010 (ip), vehicle: other) 118 % of control; (dose: 1.0 mg/kg/injection, schedule: Q01DX010 (ip), vehicle: carboxymethylcellulose (CMC)) 100 % of control and 123 % of control; (dose: 30.0 micrograms/kg/injection, schedule: Q01DX010 (ip), vehicle: other) 110 % of control. Moreover, for the setting “dose: 60.0 micrograms/kg/injection, schedule: Q01DX010 (ip), vehicle: other”, the T/C is 110 % of control.
`O=C(CCC(O)c1ccccc1)NCc1ccccc1` (stereo unspecified): the T/C was 104 % of control (dose: 100.0 mg/kg/injection, schedule: Q01DX001 (ip), vehicle: saline with Tween-80); 100 % of control (dose: 200.0 mg/kg/injection, schedule: Q01DX001 (ip), vehicle: saline with Tween-80); 90 % of control (dose: 400.0 mg/kg/injection, schedule: Q01DX001 (ip), vehicle: saline with Tween-80).
